Measurements reported in PubChem BioAssay AID1963853 (Molecular Pharmacology Branch, DTP, NCI, 2024).

Test system: 266295-075-R-J1-PDC spheroid viability
Assay: Anticancer human tumor 266295-075-R-J1-PDC patient-derived head and neck squamous carcinoma cell line growth inhibition [POLQ]
Conditions: spheroids with HUVEC and MSC; for IC50: curve of first compound; for viability, T/C: stronger effect = lower value
How it was run: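 Patient-derived tumour cells were co-cultured with HUVEC and mesenchymal stem cells as multicellular spheroids at 37 °C. They were treated with POLQ inhibitors (novobiocin, ART-558, RP6685) alone or combined with other agents. Top concentrations were at or near clinical Cmax (otherwise 10 microM; SN-38 at 1 microM), decreasing in half-log steps.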

[1] = second compound 0.0316 µM, first compound 0.0316 µM
[2] = second compound 0.0316 µM, first compound 0.1 µM
[3] = second compound 0.0316 µM, first compound 0.316 µM
[4] = second compound 0.0316 µM, first compound 1 µM
[5] = second compound 0.0316 µM, first compound 3.16 µM
[6] = second compound 0.0316 µM, first compound 10 µM
[7] = second compound 0.1 µM, first compound 0.0316 µM
[8] = second compound 0.1 µM, first compound 0.1 µM
[9] = second compound 0.1 µM, first compound 0.316 µM
[10] = second compound 0.1 µM, first compound 1 µM
[11] = second compound 0.1 µM, first compound 3.16 µM
[12] = second compound 0.1 µM, first compound 10 µM
[13] = second compound 0.316 µM, first compound 0.0316 µM
[14] = second compound 0.316 µM, first compound 0.1 µM
[15] = second compound 0.316 µM, first compound 0.316 µM
[16] = second compound 0.316 µM, first compound 1 µM
[17] = second compound 0.316 µM, first compound 3.16 µM
[18] = second compound 0.316 µM, first compound 10 µM
[19] = second compound 1 µM, first compound 0.0316 µM
[20] = second compound 1 µM, first compound 0.1 µM
[21] = second compound 1 µM, first compound 0.316 µM
[22] = second compound 1 µM, first compound 1 µM
[23] = second compound 1 µM, first compound 3.16 µM
[24] = second compound 1 µM, first compound 10 µM
[25] = second compound 3.16 µM, first compound 0.0316 µM
[26] = second compound 3.16 µM, first compound 0.1 µM
[27] = second compound 3.16 µM, first compound 0.316 µM
[28] = second compound 3.16 µM, first compound 1 µM
[29] = second compound 3.16 µM, first compound 3.16 µM
[30] = second compound 3.16 µM, first compound 10 µM
[31] = second compound 10 µM, first compound 0.0316 µM
[32] = second compound 10 µM, first compound 0.1 µM
[33] = second compound 10 µM, first compound 0.316 µM
[34] = second compound 10 µM, first compound 1 µM
[35] = second compound 10 µM, first compound 3.16 µM
[36] = second compound 10 µM, first compound 10 µM
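Further: spheroids exposed to compounds for seven days before readout.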

CC1COCCN1c1cc(C2(O)CC3CCC(C2)O3)c2cnn(-c3ccn[nH]3)c2n1 (stereo not drawn) + COC1C(OC(N)=O)C(O)C(Oc2ccc3c(O)c(NC(=O)c4ccc(O)c(CC=C(C)C)c4)c(=O)oc3c2C)OC1(C)C
IC50 (second compound 0.0316 µM): 1130 nM | IC50 (second compound 0.1 µM): 1290 nM | IC50 (second compound 0.316 µM): 1050 nM | IC50 (second compound 1 µM): 921 nM | IC50 (second compound 3.16 µM): 898 nM | IC50 (second compound 10 µM): 903 nM | viability, T/C [1]: 84.7% | viability, T/C [2]: 79.8% | viability, T/C [3]: 65.6% | viability, T/C [4]: 52.8% | viability, T/C [5]: 36.9% | viability, T/C [6]: 29.8% | viability, T/C [7]: 92% | viability, T/C [8]: 80.8% | viability, T/C [9]: 62.7% | viability, T/C [10]: 51.5% | viability, T/C [11]: 44.6% | viability, T/C [12]: 26.8% | viability, T/C [13]: 103% | viability, T/C [14]: 69.5% | viability, T/C [15]: 64.8% | viability, T/C [16]: 56.1% | viability, T/C [17]: 43.2% | viability, T/C [18]: 30.4% | viability, T/C [19]: 87.2% | viability, T/C [20]: 73.3% | viability, T/C [21]: 75.3% | viability, T/C [22]: 46.8% | viability, T/C [23]: 41.7% | viability, T/C [24]: 34.4% | viability, T/C [25]: 84.2% | viability, T/C [26]: 74.7% | viability, T/C [27]: 57% | viability, T/C [28]: 48.2% | viability, T/C [29]: 42.9% | viability, T/C [30]: 31% | viability, T/C [31]: 81.2% | viability, T/C [32]: 81.9% | viability, T/C [33]: 63.2% | viability, T/C [34]: 49.4% | viability, T/C [35]: 39.3% | viability, T/C [36]: 34.2%

CCc1c2c(nc3ccc(O)cc13)-c1cc3c(c(=O)n1C2)COC(=O)[C@]3(O)CC + Cc1cccc(N(C)C(=O)C2C(O)CCN2c2nc(C)cc(C(F)(F)F)c2C#N)c1
IC50 (second compound 0.0316 µM): > 1000 nM | IC50 (second compound 0.1 µM): > 1000 nM | IC50 (second compound 0.316 µM): > 1000 nM | IC50 (second compound 1 µM): > 1000 nM | IC50 (second compound 3.16 µM): > 1000 nM | IC50 (second compound 10 µM): > 1000 nM | viability, T/C (second compound 0.0316 µM, first compound 0.00316 µM): 90.2% | viability, T/C (second compound 0.0316 µM, first compound 0.01 µM): 81.4% | viability, T/C [1]: 80.4% | viability, T/C [2]: 85.8% | viability, T/C [3]: 113% | viability, T/C [4]: 76.7% | viability, T/C (second compound 0.1 µM, first compound 0.00316 µM): 90.3% | viability, T/C (second compound 0.1 µM, first compound 0.01 µM): 78.5% | viability, T/C [7]: 90.4% | viability, T/C [8]: 81.9% | viability, T/C [9]: 110% | viability, T/C [10]: 72.9% | viability, T/C (second compound 0.316 µM, first compound 0.00316 µM): 85.8% | viability, T/C (second compound 0.316 µM, first compound 0.01 µM): 84.1% | viability, T/C [13]: 87.2% | viability, T/C [14]: 87% | viability, T/C [15]: 92.5% | viability, T/C [16]: 75.1% | viability, T/C (second compound 1 µM, first compound 0.00316 µM): 91.5% | viability, T/C (second compound 1 µM, first compound 0.01 µM): 86.7% | viability, T/C [19]: 77% | viability, T/C [20]: 84.3% | viability, T/C [21]: 92.7% | viability, T/C [22]: 75.5% | viability, T/C (second compound 3.16 µM, first compound 0.00316 µM): 78.5% | viability, T/C (second compound 3.16 µM, first compound 0.01 µM): 74.1% | viability, T/C [25]: 79.9% | viability, T/C [26]: 89% | viability, T/C [27]: 107% | viability, T/C [28]: 75.2% | viability, T/C (second compound 10 µM, first compound 0.00316 µM): 92.8% | viability, T/C (second compound 10 µM, first compound 0.01 µM): 92% | viability, T/C [31]: 82.9% | viability, T/C [32]: 85.7% | viability, T/C [33]: 87.8% | viability, T/C [34]: 55.6%

CC(C)n1c(=O)n(C)c2cnc3cc(F)c(-c4ccc(OCCCN5CCCCC5)nc4)cc3c21 + Cc1cccc(N(C)C(=O)C2C(O)CCN2c2nc(C)cc(C(F)(F)F)c2C#N)c1
IC50 (second compound 0.0316 µM): > 10000 nM | IC50 (second compound 0.1 µM): > 10000 nM | IC50 (second compound 0.316 µM): > 10000 nM | IC50 (second compound 1 µM): > 10000 nM | IC50 (second compound 3.16 µM): > 10000 nM | IC50 (second compound 10 µM): > 10000 nM | viability, T/C [1]: 101% | viability, T/C [2]: 127% | viability, T/C [3]: 95.2% | viability, T/C [4]: 73.6% | viability, T/C [5]: 93.2% | viability, T/C [6]: 60.7% | viability, T/C [7]: 99.1% | viability, T/C [8]: 111% | viability, T/C [9]: 98.9% | viability, T/C [10]: 83.4% | viability, T/C [11]: 73.5% | viability, T/C [12]: 69.8% | viability, T/C [13]: 125% | viability, T/C [14]: 118% | viability, T/C [15]: 96.8% | viability, T/C [16]: 90.8% | viability, T/C [17]: 88.1% | viability, T/C [18]: 61.9% | viability, T/C [19]: 103% | viability, T/C [20]: 90.8% | viability, T/C [21]: 95.3% | viability, T/C [22]: 91.3% | viability, T/C [23]: 78.4% | viability, T/C [24]: 60.3% | viability, T/C [25]: 91.8% | viability, T/C [26]: 95.4% | viability, T/C [27]: 88.8% | viability, T/C [28]: 90.8% | viability, T/C [29]: 80.2% | viability, T/C [30]: 64.9% | viability, T/C [31]: 97.3% | viability, T/C [32]: 103% | viability, T/C [33]: 96.5% | viability, T/C [34]: 100% | viability, T/C [35]: 78.9% | viability, T/C [36]: 67.1%

COc1ccc([C@@H](O)c2cc(-c3ncnc4cc(N5CCOCC5)ccc34)c(F)cc2Cl)nn1 + Cc1cccc(N(C)C(=O)C2C(O)CCN2c2nc(C)cc(C(F)(F)F)c2C#N)c1
IC50 (second compound 0.0316 µM): 3950 nM | IC50 (second compound 0.1 µM): 2460 nM | IC50 (second compound 0.316 µM): 2640 nM | IC50 (second compound 1 µM): 2700 nM | IC50 (second compound 3.16 µM): 3940 nM | IC50 (second compound 10 µM): 5670 nM | viability, T/C [1]: 102% | viability, T/C [2]: 82.1% | viability, T/C [3]: 73.5% | viability, T/C [4]: 73.9% | viability, T/C [5]: 47.3% | viability, T/C [6]: 40.5% | viability, T/C [7]: 90.2% | viability, T/C [8]: 86.5% | viability, T/C [9]: 81.5% | viability, T/C [10]: 71% | viability, T/C [11]: 43% | viability, T/C [12]: 39.9% | viability, T/C [13]: 101% | viability, T/C [14]: 112% | viability, T/C [15]: 91.4% | viability, T/C [16]: 62.7% | viability, T/C [17]: 53.2% | viability, T/C [18]: 38.9% | viability, T/C [19]: 81.8% | viability, T/C [20]: 94.2% | viability, T/C [21]: 69.3% | viability, T/C [22]: 76.6% | viability, T/C [23]: 45.3% | viability, T/C [24]: 39.1% | viability, T/C [25]: 85.3% | viability, T/C [26]: 80.9% | viability, T/C [27]: 76% | viability, T/C [28]: 66.2% | viability, T/C [29]: 53.3% | viability, T/C [30]: 36.5% | viability, T/C [31]: 115% | viability, T/C [32]: 92.4% | viability, T/C [33]: 89% | viability, T/C [34]: 69% | viability, T/C [35]: 53.7% | viability, T/C [36]: 44.8%
